Reference: patent US6677310B1, “Ring-expanded nucleosides and nucleotides” (Nabi, priority 1999, dated 2004)

Experiments:
SF-539 = experiment: SRB anti-cancer assay, CNS Cancer; type: cell-based, human; conditions: SF-539 (CNS Cancer), 48 h
NCI-H522 = type: cell-based, human; conditions: NCI-H522 (Non-Small Cell Lung Cancer), 48 h
[1] = target: T1, bacteriophage T7 RNA polymerase (Escherichia phage T7, UniProt P00573); experiment: Transcription catalyzed by T7 RNA polymerase; type: biochemical
T1 construct: purchased Promega P2075
Method: To show whether the “fat” nucleotide Compound 15-2 (FNTP) is incorporated into RNA during transcription, experiments were performed using bacteriophage T7 RNA polymerase (RNAP) and a synthetic 42-mer DNA template shown below that is annealed to a 17-nucleotide promoter specific for T7 RNAP. This promoter-template enables the synthesis of 25-mer RNA, and the purine analogue may be incorporated in positions +1, +11, +13, +15, +21, +22, and +23.
Transcription reaction conditions were optimized with the use of ^32P CTP for labeling RNA transcripts. Polyacrylimide gel electrophoresis of the transcription products obtained from the 42-mer template, using 1 mM each of four natural NTPs, reveled a 25-mer RNA as the major product, together with shorter and longer labeled transcripts (FIG. 9, lane 1). The additional bands observed are consistent with the known ability of T7 RNA polymerase to add non-coded residues at the 3′-end of transcripts. (Milligan, J. F., et al., Nuc. Acids Res., 15, 8783-8798, 1987) With the use of 1 mM nucleotide Compound 15-2 (FNTP), the yield of transcription was reduced (lane 2).
With the use of a synthetic 37-mer DNA template, annealed to a 17-nucleotide promoter for T7 RNAP as shown below, a 20 nucleotide-long transcript RNA was obtained when the reaction mixture contained all four NTPs in appropriate concentrations, along with many shorter “abortive” fragments. (Milligan, J. F., et al., Nuc. Acids Res., 15, 8783-8798, 1987). For the reaction with modified nucleotide, typically
the concentration of the appropriate natural nucleotide was reduced. […] (Milligan, J. F., et al., Methods in Enzymol., 180, 51-63, 1989.) In the present experiments, the synthesis of RNA was compared under standard conditions (using 4 NTPs in 0.2 mM concentration each) with the synthesis of RNA by using an additional “fat” nucleoside triphosphate Compound 15-2 (FNTP) in varying (0.05-10 mM) concentrations. The reaction mixtures were incubated at 37° C. for 2 hours, and the products were denatured in a buffer containing urea. The products were separated by 20% polyacrylamide-urea gel electrophoresis and visualized by autoradiography.
Transcription samples (total volume 10 μL contained: 40 mM Tris-HCl pH 8.1 with 6 mM MgCl2, 5 mM dithiothreitol (DTT), 1 mM spermidine, 0.01% Triton-X 100, 50 μg/mL bovine serum albumin, 250 nM synthetic DNA template with a promotor for T7 RNAP, 4 units of T7 RNA polymerase, and 0.2 mM ribonucleoside triphosphates. A single α^32P-labeled NTP was added for labeling (typicallly 1 μL of 10 mCi/mL ). Inhibition assays were monitored with varying concentrations (0.05-10 mM) of nucleotide Compound 15-2. Polyacrylamide gel (20%) electrophoresis was performed on slab gels (18 cm×16 cm, or 35 cm×44 cm) containing 8M urea. […]

[2] = target: T2, guanine deaminase (guanase) from rabbit liver (Oryctolagus cuniculus, UniProt G1T386); experiment: Guanine deaminase assay (Example 17); type: biochemical; conditions: Lineweaver-Burk plots
T2 construct: from tissue; host or cells: rabbit liver
Method: Stock solutions of the substrate, enzyme, and inhibitors were prepared using a 50 mM Tris-HCl buffer (pH 7.4). The enzyme kinetics was followed by measuring the change in optical density (decrease in absorbance) per minute of the substrate guanine. By keeping the concentration of the inhibitor constant, and by varying the substrate concentration, a set of kinetic data was obtained. Additional sets of data were generated using different concentrations of the inhibitor. The substrate concentration in each assay ranged 6-20 μM; a total of six different concentrations were employed. The inhibitor concentration used in each assay was 30 or 40 μM. The amount of enzyme used in each assay was 0.0076 unit. The Ki for inhibition assays was computed from Lineweaver-Burk plots. The Lineweaver-Burk plot (1/V vs 1/[S]), as well as the linear regression analysis of kinetic data, were performed using the program Quattro Pro (version 6.01) for Windows.™.

[3] = target: T3, adenosine deaminase from calf intestinal mucosa (Bos taurus, UniProt P56658); experiment: Adenosine deaminase assay (Example 17); type: biochemical; conditions: Lineweaver-Burk plots; with and without preincubation
T3 construct: against adenosine deaminase from calf intestinal mucosa; from tissue; host or cells: calf intestinal mucosa
Method: Inhibition of adenosine deaminase (ADA) by Compound 17-1 and Compound 17-2 (see FIG. 13 for chemical structures; note that structure 1 FIG. 13 is the same as that in figure except that it is written in an anti-conformation in the former) was investigated in vitro against adenosine deaminase from calf intestinal mucosa in a 50 mM phosphate buffer (pH=7.4) at 25° C., by spectro-photometrically monitoring the rate of hydrolysis of substrate adenosine at 265 nm. Stock solutions of the substrate, enzyme, and inhibitors were prepared using a 50 mM phosphate buffer (pH 7.4). The enzyme kinetics was followed by measuring the change in optical density (decrease in absorbance) per minute of the substrate adenosine. By keeping the concentration of the inhibitor constant, and by varying the substrate concentration, a set of kinetic data was obtained. Additional sets of data were generated using different concentrations of the inhibitor. […]
(a) pre-incubation of the enzyme with the inhibitor; here the enzyme (ADA 10 μL) and inhibitor were preincubated for 10 min in a calculated amount of phosphate buffer (50 mM, pH 7.5 ) at 25° C. and the reaction was initiated by the addition of substrate, adenosine, and (b) without preincubation; here the reaction was started by addition of ADA (10 μL) to a mixture of adenosine and inhibitor in the phosphate buffer at 25° C. […]

[4] = read-out: LC50 (the source's name)

T1 sequence (P00573 whole entry): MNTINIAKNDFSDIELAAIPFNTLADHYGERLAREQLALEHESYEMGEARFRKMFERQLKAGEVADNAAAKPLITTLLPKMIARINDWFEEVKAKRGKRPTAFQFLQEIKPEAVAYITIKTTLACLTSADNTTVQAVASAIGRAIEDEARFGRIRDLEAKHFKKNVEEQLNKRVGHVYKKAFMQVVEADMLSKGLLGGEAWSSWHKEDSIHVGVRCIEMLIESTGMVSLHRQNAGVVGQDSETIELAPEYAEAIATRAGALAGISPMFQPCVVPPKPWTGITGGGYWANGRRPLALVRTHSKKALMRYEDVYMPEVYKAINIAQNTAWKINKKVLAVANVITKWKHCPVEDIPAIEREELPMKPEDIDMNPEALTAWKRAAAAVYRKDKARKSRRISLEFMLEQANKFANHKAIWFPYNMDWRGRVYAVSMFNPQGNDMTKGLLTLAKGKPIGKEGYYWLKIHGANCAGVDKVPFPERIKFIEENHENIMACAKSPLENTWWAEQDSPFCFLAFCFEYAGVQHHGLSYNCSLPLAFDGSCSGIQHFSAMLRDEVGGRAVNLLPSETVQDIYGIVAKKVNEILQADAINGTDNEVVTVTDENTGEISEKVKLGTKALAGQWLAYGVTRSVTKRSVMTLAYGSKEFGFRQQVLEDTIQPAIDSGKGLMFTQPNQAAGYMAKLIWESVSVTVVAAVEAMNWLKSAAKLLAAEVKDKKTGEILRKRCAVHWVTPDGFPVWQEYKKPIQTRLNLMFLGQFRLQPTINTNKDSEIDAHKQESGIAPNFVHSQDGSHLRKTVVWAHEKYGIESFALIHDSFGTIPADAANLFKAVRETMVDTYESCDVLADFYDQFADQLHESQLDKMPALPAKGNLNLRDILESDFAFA
T3 sequence (P56658 whole entry): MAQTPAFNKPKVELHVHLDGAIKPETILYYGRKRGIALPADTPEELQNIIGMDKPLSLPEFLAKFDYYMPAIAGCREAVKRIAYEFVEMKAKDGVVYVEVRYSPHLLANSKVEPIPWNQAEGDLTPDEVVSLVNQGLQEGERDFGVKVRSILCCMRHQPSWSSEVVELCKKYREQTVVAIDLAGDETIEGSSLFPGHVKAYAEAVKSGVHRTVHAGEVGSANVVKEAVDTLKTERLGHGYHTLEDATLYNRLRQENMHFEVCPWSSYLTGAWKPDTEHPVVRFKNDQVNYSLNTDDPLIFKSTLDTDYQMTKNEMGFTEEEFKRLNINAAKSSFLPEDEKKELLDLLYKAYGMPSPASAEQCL
T2 sequence (G1T386 1-454): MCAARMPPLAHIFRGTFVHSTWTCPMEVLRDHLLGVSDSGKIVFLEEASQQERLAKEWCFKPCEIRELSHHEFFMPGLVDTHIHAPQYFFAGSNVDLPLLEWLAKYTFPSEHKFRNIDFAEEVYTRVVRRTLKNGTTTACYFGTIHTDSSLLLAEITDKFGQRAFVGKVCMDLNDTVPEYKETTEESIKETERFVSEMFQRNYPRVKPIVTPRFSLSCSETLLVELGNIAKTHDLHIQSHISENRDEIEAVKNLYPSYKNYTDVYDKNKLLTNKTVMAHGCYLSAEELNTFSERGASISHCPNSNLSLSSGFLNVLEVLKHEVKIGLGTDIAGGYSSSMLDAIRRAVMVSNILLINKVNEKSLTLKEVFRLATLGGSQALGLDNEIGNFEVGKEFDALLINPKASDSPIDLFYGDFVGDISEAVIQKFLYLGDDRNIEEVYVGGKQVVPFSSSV

## N=c1[nH]c(=O)c2ncn([C@@H]3O[C@H](CO)[C@@H](O)[C@H]3O)c2c(=O)[nH]1 [Compound 14-1, 6-Imino-6H-1-β-D-ribofuranosyl-4,5,7,8-tetrahydroimidazo[4,5-e][1,3]diazepine-4,8-dione]
SF-539
  GI50: > 100 µM
  TGI: >100 µM
SF-539; [4]
  CC50: > 100 µM
NCI-H522
  GI50: > 100 µM
  TGI: >100 µM
NCI-H522; [4]
  CC50: > 100 µM

## N=c1nc(N)c2ncn([C@@H]3O[C@H](CO)[C@@H](O)[C@H]3O)c2c(N)n1 [Compound 14-2, 4,8-Diamino-6H-6-imino-1-β-D-ribofuranosylimidazo[4,5-e][1,3]diazepine]
[1]; 42-mer DNA template
  incorporation into RNA during transcription (substrate for T7 polymerase): neither incorporation nor inhibition
[1]; 42-mer and 37-mer DNA templates, 0.05-10 mM
  inhibition of T7 RNA polymerase-catalyzed transcription: failed to cause inhibition of the transcription
[2]
  inhibition of guanine deaminase (guanase), mode: inactive
[3]
  mode of inhibition of adenosine deaminase: competitive inhibitor
